In PubChem BioAssay AID248 (DTP/NCI, 2004):
Several values for one entry are separate records, joined by “and”; a condition that tells them apart may be missing. Equal entries are not always repeated. Toxic doses and inconclusive results are not listed. Rule as the data show it: active = T/C of 150% or more; inactive = T/C below 125%.

Tested on: L1210 leukemia ip in BDF1 mice, survival T/C
Assay: NCI In Vivo Anticancer Drug Screen. Data for tumor model L1210 Leukemia (intraperitoneal) in B6D2F1 (BDF1) mice
Conditions: higher = longer survival
How it was run: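 Tumor was transplanted into mice, which were then dosed with test compound or vehicle alone. Survival was recorded for each group, and the treated figure was expressed relative to the control figure.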

[1] = endpoint: mean survival time, dose: 100.0 mg/kg/injection, schedule: Q01DX009 (ip), vehicle: saline with Tween-80
[2] = endpoint: mean survival time, dose: 200.0 mg/kg/injection, schedule: Q01DX009 (ip), vehicle: saline with Tween-80
[3] = endpoint: mean survival time, dose: 400.0 mg/kg/injection, schedule: Q01DX009 (ip), vehicle: saline with Tween-80
[4] = endpoint: mean survival time, dose: 100.0 mg/kg/injection, schedule: Q01DX001 (ip), vehicle: Klucel (hydroxypropylcellulose) (HPC)
[5] = endpoint: mean survival time, dose: 200.0 mg/kg/injection, schedule: Q01DX001 (ip), vehicle: Klucel (hydroxypropylcellulose) (HPC)
[6] = endpoint: mean survival time, dose: 400.0 mg/kg/injection, schedule: Q01DX001 (ip), vehicle: Klucel (hydroxypropylcellulose) (HPC)
[7] = endpoint: mean survival time, dose: 100.0 mg/kg/injection, schedule: Q04DX003 (ip), vehicle: saline with Tween-80
[8] = endpoint: mean survival time, dose: 200.0 mg/kg/injection, schedule: Q04DX003 (ip), vehicle: saline with Tween-80
[9] = endpoint: mean survival time, dose: 400.0 mg/kg/injection, schedule: Q04DX003 (ip), vehicle: saline with Tween-80
[10] = endpoint: mean survival time, dose: 100.0 mg/kg/injection, schedule: Q01DX001 (ip), vehicle: saline
[11] = endpoint: mean survival time, dose: 200.0 mg/kg/injection, schedule: Q01DX001 (ip), vehicle: saline
[12] = endpoint: mean survival time, dose: 400.0 mg/kg/injection, schedule: Q01DX001 (ip), vehicle: saline

Measured: T/C

COc1ccc(CCOS(=O)(=O)c2ccc(C)cc2)cc1
inactive: [1] 100 % of control | [2] 97 % of control | [3] 100 % of control

O=[N+]([O-])c1cccc2cn[nH]c12
inactive: endpoint: mean survival time, dose: 25.0 mg/kg/injection, schedule: Q04DX002 (ip), vehicle: saline with Tween-80 100 % of control | endpoint: mean survival time, dose: 50.0 mg/kg/injection, schedule: Q04DX002 (ip), vehicle: saline with Tween-80 110 % of control | endpoint: mean survival time, dose: 100.0 mg/kg/injection, schedule: Q04DX002 (ip), vehicle: saline with Tween-80 107 % of control and 89 % of control

Cc1nc2c3nc(C)oc3c3ccccc3c2o1
inactive: [4] 97 % of control | [5] 89 % of control | [6] 86 % of control

O=C1C=CC(=NCC(=O)OCc2ccccc2)O1
inactive: endpoint: mean survival time, dose: 200.0 mg/kg/injection, schedule: Q04DX003 (ip), vehicle: acetone 91 % of control | endpoint: mean survival time, dose: 400.0 mg/kg/injection, schedule: Q04DX003 (ip), vehicle: acetone 90 % of control

c1ccc(C2=NC(c3ccccc3)N3CC23c2ccccc2)cc1 (stereo not drawn)
inactive: [4] 97 % of control | [5] 94 % of control

COc1ccc(Cl)cc1NC1=CC(c2ccc(Cl)cc2)OC1=O (stereo not drawn)
inactive: [7] 102 % of control | [8] 100 % of control | [9] 91 % of control

NN=C1c2ccccc2C(F)(F)c2ccccc21
inactive: endpoint: mean survival time, dose: 50.0 mg/kg/injection, schedule: Q01DX001 (ip), vehicle: Klucel (hydroxypropylcellulose) (HPC) 95 % of control | [4] 95 % of control

CC(O)(c1ccc(Cl)cc1)C(c1ccccc1)c1ccccn1 (stereo not drawn)
inactive: endpoint: mean survival time, dose: 50.0 mg/kg/injection, schedule: Q01DX009 (ip), vehicle: water 103 % of control | endpoint: mean survival time, dose: 100.0 mg/kg/injection, schedule: Q01DX009 (ip), vehicle: water 95 % of control | endpoint: mean survival time, dose: 100.0 mg/kg/injection, schedule: Q04DX003 (ip), vehicle: water 116 % of control | endpoint: mean survival time, dose: 200.0 mg/kg/injection, schedule: Q01DX009 (ip), vehicle: water 96 % of control | endpoint: mean survival time, dose: 200.0 mg/kg/injection, schedule: Q04DX003 (ip), vehicle: water 119 % of control | endpoint: mean survival time, dose: 400.0 mg/kg/injection, schedule: Q01DX009 (ip), vehicle: water 97 % of control | endpoint: mean survival time, dose: 400.0 mg/kg/injection, schedule: Q04DX003 (ip), vehicle: water 104 % of control

CCN(C(=O)c1ccc(C(=O)N(CC)c2ccccc2)cc1)c1ccccc1
inactive: [7] 96 % of control | [8] 91 % of control | [9] 91 % of control

CCOC(=O)c1ccc(N2C(N)=NC(N)=NC2(C)C)cc1
inactive: endpoint: mean survival time, dose: 100.0 mg/kg/injection, schedule: Q04DX003 (ip), vehicle: saline 101 % of control

CCOC(=O)NCCO
inactive: [10] 103 % of control | [11] 95 % of control | [12] 97 % of control

Cc1cc2c(cc1[N+](=O)[O-])OCCO2
inactive: [7] 93 % of control | [8] 89 % of control | [9] 88 % of control

CC(C)CCCC(C)C1CCC2C3CCC4(C)CCCCC4(C)C3CCC12C (stereo not drawn)
inactive: [4] 98 % of control | [5] 94 % of control | [6] 109 % of control

Cc1nc2nc(N)nc(N)c2nc1CNc1ccc(C(=O)NC(CCC(=O)O)C(=O)O)cc1 (stereo not drawn)
inactive: endpoint: median survival time, dose: 0.39 mg/kg/injection, schedule: Q01DX009 (ip), vehicle: other 100 % of control | endpoint: median survival time, dose: 0.65 mg/kg/injection, schedule: Q01DX009 (ip), vehicle: other 100 % of control | endpoint: median survival time, dose: 1.08 mg/kg/injection, schedule: Q01DX009 (ip), vehicle: other 100 % of control | endpoint: median survival time, dose: 1.8 mg/kg/injection, schedule: Q01DX009 (ip), vehicle: other 100 % of control | endpoint: median survival time, dose: 5.0 mg/kg/injection, schedule: Q01DX009 (ip), vehicle: other 100 % of control | endpoint: median survival time, dose: 14.0 mg/kg/injection, schedule: Q01DX009 (ip), vehicle: other 110 % of control | endpoint: median survival time, dose: 108.0 mg/kg/injection, schedule: Q01DX009 (ip), vehicle: other 100 % of control | endpoint: median survival time, dose: 180.0 mg/kg/injection, schedule: Q01DX009 (ip), vehicle: other 105 % of control | endpoint: median survival time, dose: 300.0 mg/kg/injection, schedule: Q01DX009 (ip), vehicle: other 105 % of control

O=C(C[n+]1ccc(/C=N\O)cc1)c1ccc(-c2ccc(C(=O)C[n+]3ccc(/C=N/O)cc3)cc2)cc1
inactive: endpoint: mean survival time, dose: 100.0 mg/kg/injection, schedule: Q04DX002 (ip), vehicle: Klucel (hydroxypropylcellulose) (HPC) 103 % of control | endpoint: mean survival time, dose: 200.0 mg/kg/injection, schedule: Q04DX002 (ip), vehicle: Klucel (hydroxypropylcellulose) (HPC) 100 % of control | endpoint: mean survival time, dose: 400.0 mg/kg/injection, schedule: Q04DX002 (ip), vehicle: Klucel (hydroxypropylcellulose) (HPC) 92 % of control

CC#C[P+](Cc1ccccc1)(c1ccccc1)c1ccccc1
inactive: endpoint: mean survival time, dose: 9.5 mg/kg/injection, schedule: Q01DX001 (ip), vehicle: saline 108 % of control | endpoint: mean survival time, dose: 19.0 mg/kg/injection, schedule: Q01DX001 (ip), vehicle: saline 117 % of control

O=C(O)C1C2CC3C(OC(=O)C31)C2Br (stereo not drawn)
inactive: [10] 104 % of control | [1] 91 % of control | [7] 91 % of control | [11] 94 % of control | [2] 96 % of control | [8] 100 % of control | [12] 97 % of control | [3] 91 % of control | [9] 104 % of control

CC(CO)CCC(=O)C(C)C1C(=O)CC2CC3CC(O)CCC3(C)CC21C (stereo not drawn)
inactive: [4] 98 % of control | [5] 105 % of control | [6] 119 % of control

CC(C)(C)N(N)Cc1ccccc1
inactive: [10] 106 % of control | [11] 95 % of control | [12] 104 % of control

CCCCCCCCCCCCCCCCCC(=O)N/N=C/C(C=C=C(C)C)(CC)CCCC (stereo not drawn)
inactive: endpoint: mean survival time, dose: 100.0 mg/kg/injection, schedule: Q01DX009 (ip), vehicle: Klucel (hydroxypropylcellulose) (HPC) 101 % of control | endpoint: mean survival time, dose: 200.0 mg/kg/injection, schedule: Q01DX009 (ip), vehicle: Klucel (hydroxypropylcellulose) (HPC) 96 % of control | endpoint: mean survival time, dose: 400.0 mg/kg/injection, schedule: Q01DX009 (ip), vehicle: Klucel (hydroxypropylcellulose) (HPC) 96 % of control

Cc1cc([N+](=O)[O-])c(Nc2ccc(F)cc2)c([N+](=O)[O-])c1
inactive: [1] 97 % of control | [7] 105 % of control | [2] 92 % of control | [8] 97 % of control | [3] 94 % of control | [9] 100 % of control

CN=C(c1ccc(NC(=O)c2ccc(C(=O)Nc3ccc(C(=NC)N4CCOCC4)cc3)cc2)cc1)N1CCOCC1
inactive: endpoint: mean survival time, dose: 0.9 mg/kg/injection, schedule: Q01DX Z (ip), vehicle: carboxymethylcellulose (CMC) 86 % of control | endpoint: mean survival time, dose: 1.87 mg/kg/injection, schedule: Q01DX Z (ip), vehicle: carboxymethylcellulose (CMC) 91 % of control | endpoint: mean survival time, dose: 3.75 mg/kg/injection, schedule: Q01DX Z (ip), vehicle: carboxymethylcellulose (CMC) 93 % of control | endpoint: mean survival time, dose: 7.5 mg/kg/injection, schedule: Q01DX Z (ip), vehicle: carboxymethylcellulose (CMC) 91 % of control | endpoint: mean survival time, dose: 15.0 mg/kg/injection, schedule: Q01DX Z (ip), vehicle: carboxymethylcellulose (CMC) 101 % of control

C[n+]1ccnc2ccccc21
inactive: endpoint: mean survival time, dose: 10.0 mg/kg/injection, schedule: Q01DX009 (ip), vehicle: saline with Tween-80 105 % of control | endpoint: mean survival time, dose: 20.0 mg/kg/injection, schedule: Q01DX009 (ip), vehicle: saline with Tween-80 105 % of control | endpoint: mean survival time, dose: 40.0 mg/kg/injection, schedule: Q01DX009 (ip), vehicle: saline with Tween-80 104 % of control

CC1(C)C2CCC1(C)C(OCCC#N)C2 (stereo not drawn)
inactive: endpoint: mean survival time, dose: 100.0 mg/kg/injection, schedule: Q04DX002 (ip), vehicle: saline 93 % of control | endpoint: mean survival time, dose: 200.0 mg/kg/injection, schedule: Q04DX002 (ip), vehicle: saline 107 % of control | endpoint: mean survival time, dose: 400.0 mg/kg/injection, schedule: Q04DX002 (ip), vehicle: saline 104 % of control

COC(=O)C#CC(c1ccccc1)(c1ccccc1)c1ccccc1
inactive: [7] 90 % of control | [8] 87 % of control | [9] 90 % of control

O=C(O)O.[Co].[NH-]CC[N-]CC[N-]CC[NH-]
inactive: endpoint: mean survival time, dose: 50.0 mg/kg/injection, schedule: Q01DX001 (ip), vehicle: saline 97 % of control | [10] 108 % of control | [11] 92 % of control | [12] 100 % of control

Nc1ncnc2c1ccn2Cc1ccccc1
inactive: endpoint: mean survival time, dose: 50.0 mg/kg/injection, schedule: Q01DX001 (ip), vehicle: other 111 % of control | endpoint: mean survival time, dose: 100.0 mg/kg/injection, schedule: Q01DX001 (ip), vehicle: other 97 % of control | endpoint: mean survival time, dose: 200.0 mg/kg/injection, schedule: Q01DX001 (ip), vehicle: other 97 % of control | endpoint: mean survival time, dose: 400.0 mg/kg/injection, schedule: Q01DX001 (ip), vehicle: other 103 % of control
